Reference: publication PMC5394143 (Clinical Drug Investigation, 2017)
Like-named read-outs stand apart in the source and are kept apart here.

Columns and labels:
CYP3A4 [1] = settings: cited from earlier work
[2] = for AUC(0-inf) / half-life / Cmax / AUC(0-t): both, human, plasma; for AUC(0-inf) / half-life / Cmax: oral; for AUC(0-t): po
CYP3A4 [3] = settings: cited from earlier work; remark: listed apart in the source
clinical [4] = settings: both, human, plasma, oral, 50 mg
CYP3A4/5 = settings: single dose of 50 mg osilodrostat
[5] = system: urinary free cortisol (UFC); settings: 2–30 mg twice daily, 10 weeks, 11/12 patients with Cushing’s disease; cited from earlier work
[6] = cited from earlier work
[7] = system: urinary free cortisol (UFC); settings: after 22 weeks of treatment, 15/19 patients; cited from earlier work
[8] = safety set, 20 subjects
clinical [9] = settings: both, human, plasma, po, 50 mg
CYP1A2 = settings: single dose of 50 mg osilodrostat
CYP2D6 = CYP2D6 (Homo sapiens, UniProt P10635); settings: single dose of 50 mg osilodrostat
[10] = C max, substrate alone, geometric mean (CV%)
[11] = substrate alone, geometric mean (CV%)

CYP2D6, sequence (P10635 whole entry): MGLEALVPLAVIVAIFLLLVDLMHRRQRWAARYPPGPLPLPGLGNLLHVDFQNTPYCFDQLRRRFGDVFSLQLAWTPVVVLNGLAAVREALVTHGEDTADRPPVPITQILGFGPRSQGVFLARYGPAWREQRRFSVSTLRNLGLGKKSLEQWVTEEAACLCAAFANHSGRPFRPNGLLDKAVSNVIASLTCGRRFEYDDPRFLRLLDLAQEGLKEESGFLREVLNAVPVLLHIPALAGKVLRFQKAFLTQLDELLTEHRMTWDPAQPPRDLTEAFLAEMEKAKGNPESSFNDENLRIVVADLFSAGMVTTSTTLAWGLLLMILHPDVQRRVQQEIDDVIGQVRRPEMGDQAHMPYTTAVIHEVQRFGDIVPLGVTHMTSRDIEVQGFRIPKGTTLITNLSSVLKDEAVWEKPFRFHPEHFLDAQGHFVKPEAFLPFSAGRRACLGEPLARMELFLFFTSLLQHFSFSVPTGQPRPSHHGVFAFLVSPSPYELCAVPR

## CC(=O)N1CCN(c2ccc(OCC3COC(Cn4ccnc4)(c4ccc(Cl)cc4Cl)O3)cc2)CC1 (stereo not drawn) [Ketoconazole, ketoconazole]
CYP3A4 [1]; based on midazolam AUC change
  FDA inhibitor classification, CYP3A4: strong inhibitor (strong inhibitor, ≥5-fold increase in AUC)
CYP3A4 [1]
  increase in midazolam AUC after ketoconazole administration: ≤ 16 fold

## COc1ccc2c(c1)[C@]13CCCC[C@@H]1[C@H](C2)N(C)CC3 [Dextromethorphan, dextromethorphan]
[2]
  AUC(0-inf): 22.8 ng·h/mL
  half-life: 7.63 h
[2]; [10]
  Cmax: 1.24 ng/mL
[2]; [11]
  CL/F: 1310 (193.8) L/h

## Clc1ccc(C(c2ccccc2Cl)C(Cl)Cl)cc1 (stereo not drawn) [Mitotane, mitotane]
CYP3A4 [3]
  CYP3A4 induction: strong inducer

## Cc1ncc2n1-c1ccc(Cl)cc1C(c1ccccc1F)=NC2 [Midazolam, midazolam]
Clinical [4]
  AUC(0-t): 31.7 ng·h/mL
  Cmax: 12.8 ng/mL
  half-life: 4.81 h
[2]
  AUC(0-inf): 22 ng·h/mL
  half-life: 4.44 h
[2]; [10]
  Cmax: 8.78 ng/mL
[2]; [11]
  CL/F: 91.0 (39.6) L/h

## Cn1c(=O)c2c(ncn2C)n(C)c1=O [Caffeine, caffeine]
Clinical [4]
  AUC(0-inf): 41900 ng·h/mL
  AUC(0-t): 41100 ng·h/mL
  Cmax: 2640 ng/mL
  half-life: 7.39 h
[2]
  AUC(0-inf): 16200 ng·h/mL
  Cmax: 2500 ng/mL
  half-life: 5.39 h
  AUC(0-t): 17200 ng·h/mL
[2]; [11]
  CL/F: 6.18 (44.8) L/h

## N#Cc1ccc([C@H]2CCc3cncn32)c(F)c1 [Osilodrostat]
CYP3A4/5
  FDA inhibitor classification, CYP3A4/5: weak inhibitor (weak inhibitor, ≥1.25- but <2-fold increase in AUC)
[5]
  patients with normalized UFC: 92%
[6]
  half-life: 3 to 5 h
[7]
  patients with normalized UFC: 79%
[8]
  fatigue (suspected drug related): 15%
  flatulence and diarrhea (suspected drug related): 5%
  grade 3 or 4 AEs or serious AEs: No grade 3 or 4 AEs, or serious AEs
  subjects with AEs suspected to be drug related: 30%
Clinical [9]
  AUC(0-inf): 3430 ng·h/mL
  Cmax: 392 ng/mL
  Tmax: ~1.53 h
  half-life: 4.73 h
CYP1A2
  FDA inhibitor classification, CYP1A2: moderate inhibitor (moderate inhibitor, ≥2- but <5-fold increase in AUC)
CYP2D6
  FDA inhibitor classification, CYP2D6: weak inhibitor (weak inhibitor, ≥1.25- but <2-fold increase in AUC)

## COc1ccc2[nH]c([S+]([O-])Cc3ncc(C)c(OC)c3C)nc2c1 (stereo not drawn) [Omeprazole, omeprazole]
Clinical [4]
  AUC(0-inf): 885 ng·h/mL
  AUC(0-t): 852 ng·h/mL
  Cmax: 420 ng/mL
[2]
  AUC(0-inf): 618 ng·h/mL
  half-life: 0.77 h
  AUC(0-t): 460 ng·h/mL
[2]; [11]
  C max: 271 (69.7) ng/mL
  CL/F: 32.3 (92.9) L/h
